# Values of other authors, collected in patent publication US20170326065A1, “METHODS AND COMPOSITION FOR TREATMENT OF CARDIOVASCULAR CONDITIONS” (Ezra Pharma LLC, priority 2016, published 2017).
compound,measurement,setting,value
CCCCC(=O)N(Cc1ccc(-c2ccccc2-c2nnn[nH]2)cc1)[C@H](C(=O)O)C(C)C [valsartan],T1/2 alpha phase of elimination,"biphasic elimination, rapid alpha phase",1 to 2 h
same,T1/2 beta phase of elimination,"biphasic elimination, slow beta phase, in h",7-8
same,peak plasma concentration reduced to,"by 12 hours, marketed immediate release formulation",approximately 65%
same,absolute bioavailability,"oral administration, printed range (10-35%)",about 25%
same,half-life,valsartan,about 6 hours
same,Tmax,"valsartan, oral",2 to 4 h
